From patent US11661405B2, “Crystal forms of tetrahydro-n,n-dimethyl-2,2-diphenyl-3-furanmethanamine hydrochloride, processes of making such forms, and their pharmaceutical compositions” (ANAVEX LIFE SCIENCES CORP., priority 2015, dated 2023)

Key:
[1] = tested on: amyloid toxicity (Aβ25-35); conditions: cited from earlier work
[2] = tested on: PI3K neuroprotective pathway (P-Akt, P-GSK-3β), Tau, Aβ1-42; conditions: cited from earlier work
[3] = storage stability of crystalline forms, checked by PXRD; type: physicochemical; conditions: 40° C., 75% relative humidity, uncapped vessels, 1 week; forms from SCF in ethanol or dichloromethane
Source text: The present disclosure also provides a metabolite of tetrahydro-N,N-dimethyl-2,2-diphenyl-3-furanmethanamine hydrochloride, ANAVEX19-144. […] See for example J. of Psychopharmacol. 25(8), 1101-1117 (2011). Crystalline forms of ANAVEX19-144 were produced by placing the ANAVEX19-144 starting material in a solvent of ethanol or dichloromethane and processed by the supercritical fluid technique. The crystalline form of ANAVEX19-144 produced by the supercritical fluid technique under process parameters of 40 mg/mL ethanol solution, 200 bars of pressure, temperature of 80° C., supercritical CO2 solution with a flow rate of 20 g/min and a TS flow of 0.4 mL/min, was characterized by PXRD, FTIR, DSC, and SEM, as shown in FIGS. 12-15. […] The crystalline form of ANAVEX19-144 produced using the dichloromethane supercritical fluid technique produced a powder with better flow characteristics and improved flow properties for downstream processing. The two crystalline forms of ANAVEX19-144, produced according to the supercritical fluid technique in ethanol or dichloromethane were stored at 40° C. at 75% relative humidity in uncapped vessels for 1 week and then characterized by PXRD to determine stability of the two forms.

## CN(C)CC1CCOC1(c1ccccc1)c1ccccc1.Cl (stereo not drawn) [ANAVEX2-73, tetrahydro-N,N-dimethyl-2,2-diphenyl-3-furanmethanamine hydrochloride]
[1]; mice one week after i.c.v. injection of oligomeric Aβ25-35
  oxidative stress, caspases induction, cellular loss and learning and memory deficits: attenuating
[1]; mice
  neuroprotective potential against amyloid toxicity: shows neuroprotective potential against amyloid toxicity
[2]; Aβ25-35-induced
  Aβ25-35-induced P-Akt decrease and P-GSK-3β increase: blocked
  Aβ25-35-induced endogenous Aβ1-42 seeding: decrease
[2]; in the dose-range tested
  hyperphosphorylation of Tau on physiological epitopes (AT-8 clone) and pathological epitopes (AT-100 clone): attenuated

## CNCC1CCOC1(c1ccccc1)c1ccccc1.Cl (stereo not drawn) [ANAVEX19-144]
[3]
  stability of the two crystalline forms (PXRD after storage): stable under the conditions tested
